Experimental data published in publication PMC12040169 (PLOS Biology, 2025).

Assay: in vitro
Details: human, hela cells, % viability

Row | Compound | viability at 28.5 h, 10 µM [%]
1 | COc1cc(Nc2cncc(-c3ccc(O)cc3)n2)c(Cl)cc1C(=O)NCC1CCCO1 (stereo not drawn) [CBK126468] | 100
2 | COc1cc(Nc2cncc(-c3ccc(O)cc3)n2)c(Cl)cc1C(=O)NCC(F)(F)F [CBK126470] | 82.9
3 | COCCCn1c(N)c(C(=O)NCC(C)C)c2nc3ccccc3nc21 [CBK126495] | 84.9
4 | COc1cc(CNC(=O)c2cccc(-c3ccc(OC4CCNCC4)cc3)n2)cc(OC)c1OC [CBK126550T] | 87.1
5 | CCN(CC)c1ccc(NC(=O)c2cc(-c3cccnc3)cnc2NCCN2CCOCC2)cc1 [CBK126566] | 105
6 | c1ccc2c(-c3ccc(OC4CCNCC4)cc3)cncc2c1 [CBK126578] | 112
7 | CS(=O)(=O)N1CC2(CCN(Cc3ccc(OC(F)(F)F)cc3)CC2)c2ccccc21 [CBK126668] | 99.4
8 | CS(=O)(=O)N1CC2(CCN(Cc3cccc(C(F)(F)F)c3)CC2)c2ccccc21 [CBK126670] | 96.8
9 | CS(=O)(=O)N1CC2(CCN(Cc3nc4ccccc4[nH]3)CC2)c2ccccc21 [CBK126672] | 89.2
10 | CS(=O)(=O)N1CC2(CCN(CCO)CC2)c2ccccc21 [CBK126677] | 94.5
11 | CS(=O)(=O)N1CC2(CCN(CC(N)=O)CC2)c2ccccc21 [CBK126678] | 81.5
12 | CS(=O)(=O)N1CC2(CCN(Cc3ncc[nH]3)CC2)c2ccccc21 [CBK126680] | 98.8
13 | CCNC(=O)N1CC2(CCN(Cc3nc4ccccc4[nH]3)CC2)c2ccccc21 [CBK126693] | 98
14 | CCNC(=O)N1CC2(CCN(CCS(=O)(=O)c3ccccc3)CC2)c2ccccc21 [CBK126698] | 90.9
15 | CC(C)C(=O)N1CC2(CCN(Cc3cccc(C(F)(F)F)c3)CC2)c2ccccc21 [CBK126716] | 102
16 | CC(C)C(=O)N1CC2(CCN(CCc3c[nH]c4ccccc34)CC2)c2ccccc21 [CBK126725] | 95.6
17 | CC(C)C(=O)N1CC2(CCN(CCS(=O)(=O)c3ccccc3)CC2)c2ccccc21 [CBK126726] | 95.4
18 | Cc1cc(C(=O)N2CCN(C)CC2)ccc1-c1cnc(N)c(-c2ccc(O)cc2)n1 [CBK126749] | 94.8
19 | O=S(=O)(CCN1CCC2(CC1)CN(CCO)c1ccccc12)c1ccccc1 [CBK126758] | 102
20 | OCCN1CCC2(CC1)CN(CCO)c1ccccc12 [CBK126759] | 87.4

Row | Compound | viability at 28.5 h, 10 µM [%]
21 | O=C(CN1CCC2(CC1)CN(CCO)c1ccccc12)Nc1ccc(F)c(Cl)c1 [CBK126761] | 94.6
22 | OCCN1CC2(CCN(CCC(c3ccccc3)c3ccccc3)CC2)c2ccccc21 [CBK126765] | 88.9
23 | COc1cc(CN2CCC3(CC2)CN(CC(N)=O)c2ccccc23)cc(OC)c1OC [CBK126774] | 93.1
24 | NC(=O)CN1CC2(CCN(Cc3ccc(Cl)c(Cl)c3)CC2)c2ccccc21 [CBK126775] | 109
25 | NC(=O)CN1CC2(CCN(CCS(=O)(=O)c3ccccc3)CC2)c2ccccc21 [CBK126786] | 103
26 | NC(=O)CN1CC2(CCN(CCCn3c(=O)[nH]c4ccccc43)CC2)c2ccccc21 [CBK126787] | 89.6
27 | NC(=O)CN1CC2(CCN(CC(=O)Nc3ccc(F)c(Cl)c3)CC2)c2ccccc21 [CBK126790] | 99.2
28 | NC(=O)CN1CC2(CCN(CCCCC3NC(=O)NC3=O)CC2)c2ccccc21 (stereo not drawn) [CBK126799] | 95.9
29 | CSCCN1CCC2(CC1)CN(CC(N)=O)c1ccccc12 [CBK126801] | 92.9
30 | COc1ccc(OC)c(-c2nc(Nc3ccccc3C)sc2CC(=O)O)c1 [CBK126811] | 101
31 | CC(=O)Nc1sc2c(c1C(=O)O)CCc1ccccc1-2 [CBK126812] | 96.9
32 | Cc1cc(C(=O)O)c(NC(=O)c2cccc(Cl)c2)s1 [CBK126813] | 100
33 | O=C(CSCc1ccccc1)Nc1ccc(O)cc1C(=O)O [CBK126817] | 103
34 | CCC(=O)Nc1ccc(O)cc1C(=O)O [CBK126818] | 92.8
35 | C=CCn1c(SCC(=O)Nc2ccc(OC)cc2)nnc1-c1ccncc1 [CBK126824] | 88.9
36 | CCOCCCNC(=O)/C(=C/c1cccnc1)NC(=O)c1ccccc1 [CBK126866] | 90.8
37 | Cc1cc(N2CCOCC2)c2c(N)c(C)cc(C)c2n1 [CBK126908] | 83.8
38 | CCCN1CCc2c(sc3nc(SCC(=O)OC)nc(N)c23)C1 [CBK126911] | 96.6
39 | O=C(CSCc1ccc(Cl)cc1Cl)Nc1c[nH]c(=O)[nH]c1=O [CBK126912] | 90.4
40 | CCc1c(C)nc2ccc(Br)cc2c1SCCC(=O)O [CBK126914] | 113

Row | Compound | viability at 28.5 h, 10 µM [%]
41 | CCCCc1c(C)nc2c(OC)cccc2c1SCCC(=O)O [CBK126917] | 99.5
42 | O=C(O)CSc1cccc2cccnc12 [CBK126918] | 95
43 | CN(C)CC(=O)N1CCN(c2cncc(-c3ccc(O)cc3)n2)CC1 [CBK126921T] | 97.2
44 | CN(C)CCN(C)C(=O)C1CCN(c2cncc(-c3ccc(O)cc3)n2)CC1 [CBK126928T] | 88
45 | COc1ccc(C(=O)NCCCN(C)C)cc1Nc1cncc(-c2ccc(O)cc2)n1 [CBK126938T] | 95
46 | O=C(N1CCCC1)N1CCN(c2cncc(-c3ccc(O)cc3)n2)CC1 [CBK126947T] | 93.5
47 | COCCN1CCN(c2cncc(-c3ccc(O)cc3)n2)CC1 [CBK126951T] | 93.6
48 | O=C(Cn1nnc(-c2ccc(CN3CCOCC3)cc2)n1)Nc1ccc(Br)cc1 [CBK127364] | 94.1
49 | CCn1c(SCC(=O)Nc2nc(C)c(C(=O)OC)s2)nc2c1c(=O)n(C)c(=O)n2C [CBK127470] | 101
50 | Cn1c(=O)c2c(ncn2CC(=O)Nc2ccc(OCc3ccccc3)cc2)n(C)c1=O [CBK130478] | 89.8
51 | O=C(Cc1ccc(Cl)c(Cl)c1)N1CCC2(CCN(C(=O)c3cc(F)c(F)cc3F)C2)C1 (stereo not drawn) [CBK131386] | 95.9
52 | N#Cc1cccc(C(=O)N2CCC3(CCN(C(=O)c4cc(F)c(F)cc4F)C3)C2)c1 (stereo not drawn) [CBK131387] | 97.2
53 | CSCCC(=O)N1CCC2(CCN(C(=O)c3cc(F)c(F)cc3F)C2)C1 (stereo not drawn) [CBK131397] | 99.5
54 | O=C(c1cncnc1)N1CCC2(CCN(C(=O)c3cc(F)c(F)cc3F)C2)C1 (stereo not drawn) [CBK131405] | 94.8
55 | O=C(c1ccc2[nH]c(=O)[nH]c2c1)N1CCC2(CCN(C(=O)c3cc(F)c(F)cc3F)C2)C1 (stereo not drawn) [CBK131407] | 95.9
56 | O=C(Cc1c[nH]c2ccccc12)N1CCC2(CCN(C(=O)CC3CCCCC3)C2)C1 (stereo not drawn) [CBK131422] | 88.3
57 | O=C(Cc1ccc(Cl)c(Cl)c1)N1CCC2(CCN(C(=O)Cc3c[nH]c4ccccc34)C2)C1 (stereo not drawn) [CBK131426] | 106
58 | O=C1NC(=O)C(CC(=O)N2CCC3(CCN(C(=O)Cc4c[nH]c5ccccc45)C3)C2)N1 (stereo not drawn) [CBK131436] | 92.8
59 | CSCCC(=O)N1CCC2(CCN(C(=O)Cc3c[nH]c4ccccc34)C2)C1 (stereo not drawn) [CBK131442] | 95.3
60 | Cc1ccc(S(=O)(=O)CC(=O)N2CCC3(CCN(C(=O)Cc4c[nH]c5ccccc45)C3)C2)cc1 (stereo not drawn) [CBK131443] | 84
